From patent publication US20210024499A1, “OXIDIZED BIS(3-INDOLYL)METHANES AND USES THEREOF” (Sanford Burnam Prebys Medical Discovery Institute, priority 2018, published 2021) come the findings set out here.

The test system of assay [1] is HCT116 cancer cells. Kind of assay: Cell viability (MTT) assay, HCT116. The class given is cell-based. Particulars: Homo sapiens, HCT-116; inhibiting the growth of HCT116 cancer cells, cell viability assay (Table 5). The method, then: (§1) Cell viability was analyzed by using a colorimetric 3-(4,5-dimethylthiazol-[…]2-yl)-2,5-diphenyletetrazolium Bromide (MTT) assay that determines mitochondrial dehydrogenase activities in the living cells with a colorimetric method. Cells treated with test compounds were incubated with MTT and their effect on the viability of the cells was assayed by the ability of treated cells to reduce the yellow tetrazolium dye MTT to its insoluble formazan, which has a purple color. […]

Assay [2] relates to MDA-MB-231 cancer cells. Put plainly: Cell viability (MTT) assay, MDA-MB-231. The class given is cell-based. The settings on record: Homo sapiens; inhibiting the growth of MDA-MB-231 cancer cells, cell viability assay (Table 6). The method, then: as §1
Assay [3] has as its system mTOR markers p-S6 and p-4EBP1. Kind of assay: mTOR inhibition: expression of mTOR markers. The class given is cell-based. The settings on record: MDA-MB-231 cells, 1 μM, 6 hours.
For assay [4], the system named is MDA-MB-231 cells. Put plainly: PARP cleavage assay (Western blotting), MDA-MB-231. The class given is cell-based. The settings on record: 6 hours. From the text: (§2) Compound 1a had no effect under the same conditions (FIG. 1A). […] Compound 1a, 28a, 47a, 48a, 73a, 39a, 70a, 103a, 89a and 88a had no effect under the same conditions (FIG. 3B-C).
Assay [5] relates to HCT116 cancer cells. Put plainly: Apoptosis assay, Annexin V-FITC/propidium iodide flow cytometry. The class given is cell-based. The settings on record: Homo sapiens, HCT-116, 6 hours, Annexin V-FITC/PI flow cytometry (Table 4). How it is done:
HCT116 cancer cells plated at a density of 1×10^6 per well on six-well plates were treated with different concentration of test compounds for 6 hours, and then the suspension and the adherent cells were collected, stained with Annexin V-FITC for 15 minutes and with propodium iodide for 5 minutes, and analyzed immediately by cytoFLEX Flow Cytometry System (Beckman-Coulter, Miami, Fla., USA) using FITC and PC5.5 (Table 4).
(In flow cytometry, cells or beads pass a laser one at a time.)

For assay [6], the system named is HCT116 cells. Put plainly: PARP cleavage assay (Western blotting), HCT116. The class given is cell-based. The settings on record: 0.5 μM, 6 hours, Western blotting.
Source text: as §2

In assay [7] the test system is PyMT mammary tumor. Kind of assay: MMTV-PyMT mice breast cancer model. Format: in vivo. The method, then: Female MMTV-PyMT mice of 12 weeks old were randomly divided into two groups (n=7 each), treated with a daily oral dose of test compound for 18 days. Standard histopathological analysis of tumor tissue was performed (see Example A-19). Test compounds were dissolved in DMSO and diluted with normal saline containing 5.0% (V/V) Tween-80 to a final concentration 0.5 mg/ml. Normal saline with DMSO and 5.0% Tween-80 was employed as the vehicle control.
4 μm thick sections were deparaffinized and rehydrated using xylene and a graded series of ethanol (100, 95, 85, 75, 50%), followed by washing in PBS. Antigen retrieval was performed in 10 mM sodium citrate buffer (pH 6.0), which was microwaved at 100° C. for 20 minutes. After rinsed twice in PBS, sections were blocked at room temperature for 1 hour by using 10% normal goat serum, followed by incubation with anti-ki-67, anti-cleaved-caspase-3, overnight (at least 17 hours) at 4° C. Colors were developed with a DAB horseradish peroxidase color development kit.

Assay [8] deals with Nur77 interaction with Bcl-2. Put plainly: Confocal microscopy colocalization of Nur77 with Bcl-2. Format: cell-based.
Assay [9] deals with Nur77 interaction with Bcl-2. Put plainly: Cell-based co-immunoprecipitation of Nur77 and Bcl-2. Particulars: Nur77 transfected in HeLa cells. How it is done: Western blotting and co-immunopreciptations (co-IP) were performed. Briefly, cells transfected with or without expression vectors for Nur77 and Bcl-2 were treated with test compounds for 2 hours. The effect of compounds on the interaction of endogenous or transfected Nur77 and Bcl-2 was analyzed by co-immunoprecipitation using appropriate antibodies. Proteins immunoprecipitated from cells by an appropriate anti-Nur77 or anti-Bcl-2 antibody were analyzed by Western blotting.

Assay [10] deals with Nur77. Put plainly: Cellular fractionation and immunostaining: mitochondrial targeting of Nur77. The class given is cell-based. Particulars: immunostaining. How it is done:
(§3) For cellular fractionation, cells were lysed in cold buffer A (10 mM HEPES-KOH (pH 7.9), 1.5 mM MgCl2, 10 mM KCl, 0.5 mM dithiothreitol) with a cocktail of proteinase inhibitors on ice for 10 min as described. Cytoplasmic fraction was collected by centrifuging at 6000 rpm for 30 seconds. Pellets containing nuclei were resuspended in cold high-salt buffer C (20 mM HEPES-KOH (pH 7.9), 25% glycerol, 420 mM NaCl, 1.5 mM MgCl2, 0.2 mM EDTA, 0.5 mM dithiothreitol) with a cocktail of proteinase inhibitors on ice for 30 minutes.

Assay [11] has as its target T1, Nur77 (Homo sapiens, UniProt P22736).
T1 construct: expressed in transfected cells
The assay is described as above. The class given is cell-based. Particulars: mitochondria fractionation, 1μM. How it is done: as §3

Assay [12] relates to Nur77 and pBind-RXRa-LBD-E453,6A. Kind of assay: Mammalian one hybrid assay, RXRa-LBD/E453,6A mutant with Nur77. The class given is cell-based. The settings on record: cells transfected with Nur77 and pBind-RXRa-LBD-E453,6A. How it is done: (§4) HEK293T cells were co-transfected with pG5 Luciferase reporter together with the plasmid encoding RXRa-LBD fused with the Gal4 DNA-binding domain and other expression plasmids. After transfection, cells were treated with DMSO or a test compound, and assayed by using the Dual-Luciferase Reporter Assay System (Promega). Transfection efficiency was normalized to Renilla luciferase activity.
(§5) To exclude the possibility that Compound 1 acted on RXRa, Glu453 and Glu456 in the RXRa activation function 2 (AF2) region were substituted with Ala and the resulting mutant, RXRa-LBD/E453,6A, was used.

The subject of assay [13] is pBind-RXRa-LBD and Nur77. Put plainly: Mammalian one hybrid assay, Gal4-RXRa-LBD with Nur77. Particulars: cotransfection of pBind-RXRa-LBD and Nur77, Dual-Luciferase (FIG. 10). The class given is cell-based. The method, then:
as §4, §5

Structures are written as SMILES. pIC50: −log10 of the molar value.

T1 sequence (P22736 whole entry): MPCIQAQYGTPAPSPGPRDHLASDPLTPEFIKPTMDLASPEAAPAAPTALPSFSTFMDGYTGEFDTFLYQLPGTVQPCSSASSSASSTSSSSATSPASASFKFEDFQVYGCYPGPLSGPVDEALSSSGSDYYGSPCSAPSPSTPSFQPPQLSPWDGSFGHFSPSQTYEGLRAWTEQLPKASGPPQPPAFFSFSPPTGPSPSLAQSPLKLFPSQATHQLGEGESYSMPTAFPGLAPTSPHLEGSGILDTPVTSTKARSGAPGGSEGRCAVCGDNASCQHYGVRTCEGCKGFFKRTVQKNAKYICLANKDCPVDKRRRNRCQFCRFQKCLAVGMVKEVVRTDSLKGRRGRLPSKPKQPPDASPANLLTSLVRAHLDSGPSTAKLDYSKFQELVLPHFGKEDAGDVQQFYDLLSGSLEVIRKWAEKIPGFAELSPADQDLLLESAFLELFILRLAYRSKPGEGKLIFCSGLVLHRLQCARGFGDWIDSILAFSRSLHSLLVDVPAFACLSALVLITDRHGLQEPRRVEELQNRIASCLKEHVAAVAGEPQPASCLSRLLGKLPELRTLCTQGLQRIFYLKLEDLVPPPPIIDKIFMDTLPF

As for `Fc1cccc2c([C+](c3ccc(C(F)(F)F)cc3)c3c[nH]c4ccccc34)c[nH]c12.[Cl-]` [Compound 71, (7-Fluoro-1H-indol-3-yl)(1H-indol-3-yl)(4-(trifluoromethyl)phenyl)methylium chloride], the pIC50 in assay [1] and in assay [2] was above 6.30 each time. In addition, the “expression levels of mTOR markers p-S6 and p-4EBP1” value in [3] is listed as “reduced the expression levels”. Further, the PARP cleavage entry in assay [4] (1 μM) was “effectively induce PARP cleavage”.
On to `COC(=O)c1ccc([C+](c2c[nH]c3ccccc23)c2c[nH]c3ccccc23)cc1` [Compound 8, Bis(1H-indol-3-yl)(4-(methoxycarbonyl)phenyl)methylium methanesulfonate], for which the pIC50 in assay [1] and in assay [5] was above 6.30 throughout.
`FC(F)(F)c1ccc(C(c2c[nH]c3ccccc23)c2c[nH]c3ccccc23)cc1` [Compound 1a, reference compound]: the pIC50 in assay [1] and in assay [2] was at most 5.30 throughout. The PARP cleavage result in assay [4] (0.5 μM) and in assay [6] was “no effect” in each case.
With `Clc1ccc([C+](c2c[nH]c3ccccc23)c2c[nH]c3ccccc23)cc1` [Compound 5, Bis(1H-indol-3-yl)(4-chlorophenyl)methylium methanesulfonate], the pIC50 in assay [1] and in assay [5] was above 6.30 each time.
With `O=C(O)c1ccc([C+](c2c[nH]c3ccccc23)c2c[nH]c3ccccc23)cc1` [Compound 82, Bis(1H-indol-3-yl)(4-carboxyphenyl)methylium methanesulfonate], the pIC50 in [1] and in assay [5] was 5.30 to 6.30 in each case.
With `COc1ccc([C+](c2c[nH]c3ccccc23)c2c[nH]c3ccccc23)cc1` [Compound 7, Bis(1H-indol-3-yl)(4-methoxyphenyl)methylium methanesulfonate], the pIC50 in [1] and in [5] was 5.30 to 6.30 each time.
For the compound `FC(F)(F)Oc1ccc([C+](c2c[nH]c3ccccc23)c2c[nH]c3ccccc23)cc1.[Cl-]` [Compound 39, Bis(1H-indol-3-yl)(4-(trifluoromethoxy)phenyl)methylium chloride], the pIC50 in assay [1] and in assay [2] was 5.30 to 6.30 throughout. Besides, the “expression levels of mTOR markers p-S6 and p-4EBP1” value in assay [3] is on record as “reduced the expression levels”. Moreover, the PARP cleavage result is listed as “effectively induced PARP cleavage” in [4] (0.5 μM) and “effectively induce PARP cleavage” in [4] (1 μM).
In the case of `Cn1cc([C+](c2ccc(C(F)(F)F)cc2)c2c[nH]c3ccccc23)c2ccccc21` [Compound 28, (1-Methyl-1H-indol-3-yl)(1H-indol-3-yl)(4-(trifluoromethyl)phenyl)methylium methanesulfonate], the pIC50 in [1] and in assay [2] was above 6.30 in each case. Also, the “expression levels of mTOR markers p-S6 and p-mTOR in tumor” value in [7] (3 mg/kg) is recorded as “markedly reduced”. For the same compound, in [7] (3 mg/kg daily oral, 18 days), the “growth of PyMT mammary tumor” value is recorded as “inhibited the growth of PyMT mammary tumor”. In assay [3], the “expression levels of mTOR markers p-S6 and p-4EBP1” value is given as “reduced the expression levels”. Further, the PARP cleavage entry is “effectively induced PARP cleavage” in assay [4] (0.5 μM) and “effectively induce PARP cleavage” in assay [4] (1 μM). Besides, in [8], the “colocalization of transfected GFP-Nur77 (and GFP-Nur77-LBD) with Bcl-2” value is given as “promoted extensive colocalization”. The “Nur77 interaction with Bcl-2 (Co-IP)” value in [9] is given as “interacted with Bcl-2”. The “Myc-Nur77-LBD colocalization with mitochondria” value in [10] is “colocalized extensively with the mitochondria”. The “Myc-Nur77 in heavy membrane (HM) fraction” value in assay [11] was “accumulated in the mitochondria-enriched heavy membrane (HM) fraction”.
For `CC1=C(/C=C/C(C)=C\C=C\C(C)=C\C(=O)O)C(C)(C)CCC1` [Compound 9-cis-RA, 9-cis-RA, reference compound], the reporter transcriptional activity result in assay [12] was “failed to induce the reporter activity”; in assay [13] it was “strongly activate”.
Take `CCCn1cc([C+](c2ccc(C(F)(F)F)cc2)c2c[nH]c3ccccc23)c2ccccc21.[Cl-]` [Compound 48, (1-Propyl-1H-indol-3-yl)(1H-indol-3-yl)(4-(trifluoromethyl)phenyl)methylium chloride]: the pIC50 in assay [1] and in [2] was above 6.30 throughout. In addition, in [3], the “expression levels of mTOR markers p-S6 and p-4EBP1” value is reported as “reduced the expression levels”. Moreover, the PARP cleavage entry is recorded as “effectively induced PARP cleavage” in [4] (0.5 μM) and “effectively induce PARP cleavage” in [4] (1 μM).
